One experiment deals with EOL-1. Format: cell-based. How it is done: (§1) The CD74 MCL-1 antibody drug conjugates were tested against three endogenous cancer cell lines. MONO-MAC-1 (DSMZ No. ACC-252 cultured in RPMI-1640+10% FBS+1× non-essential amino acids+1 mM sodium pyruvate), NOMO-1 (DSMZ No. ACC-542 cultured in RPMI-1640+10% FBS) and EOL-1 (DSMZ No. ACC-386 cultured in RPMI-1640+10% FBS)
(§2) The ability of the CD74 MCL-1 antibody drug conjugates to inhibit cell proliferation in combination with BCL-2 inhibitor and survival was assessed using the Promega CellTiter-Glo® proliferation assay. Cell lines were cultured in media that is optimal for their growth at 5% CO2, 37° C. in a tissue culture incubator. Prior to seeding for the proliferation assay, the cells were split at least 2 days before the assay to ensure optimal growth density. On the day of seeding, suspension cells were harvested. Cell viability and cell density were determined using a cell counter (Vi-Cell XR Cell Viability Analyzer, Beckman Coulter). […] Cells were seeded at a density of 1,000 cells per well in 45 μL of standard growth media. Plates were incubated at 5% CO2, 37° C. overnight in a tissue culture incubator. The next day, free MCL-1 payload (P1), targeting MCL-1 ADCs and non-targeting isotype ADCs were prepared at 10× in standard growth media. The prepared drug treatments were then added to the cells resulting in final concentrations of 0.0005-300 nM and a final volume of 50 μL per well. Each drug concentration was tested in quadruplets. Three conditions were evaluated for each compound. The compounds were evaluated as single agents and in combination with Venetoclax and in combination with Compound A1. The Venetoclax and Compound A1 were dosed at either 5 nM or 50 nM final concentration. Plates were incubated at 5% CO2, 37° C. for 5 days in a tissue culture incubator, after which cell viability was assessed through the addition of 25 μL of CellTiter Glo® (Promega, cat#G7573), a reagent which lyses cells and measures total adenosine triphosphate (ATP) content. Plates were incubated at room temperature for 10 minutes to stabilize luminescent signals prior to reading using a luminescence reader (EnVision Multilabel Plate Reader, PerkinElmer). To evaluate the effect of the drug treatments, luminescent counts from wells containing untreated cells (100% viability) were used to normalize treated samples. A variable slope model was applied to fit a nonlinear regression curve to the data in GraphPad PRISM version 7.02 software. IC50 and Amax values were extrapolated from the resultant curves.

A further experiment concerns MONO-MAC-1. In kind it is cell-based. How it is done:
as §1, §2

A further experiment deals with NOMO-1. Format: cell-based. The method, then: as §1, §2
Experiment [1] relates to EOL1 human acute myeloid (eosinophilic) leukemia xenograft model. The experiment in a line: EOL1 xenograft, CD74-ADCs Fc silent with different linker payloads (Example 15). Format: in vivo, mice. Particulars: 2.5 mg/kg i.v. once + Venetoclax 50 mg/kg p.o. qd. The method, then: To optimize the linker payload, efficacy of 6 CD74-ADCs with different linker payloads (L5-P1, L30-P1, L31-P1, L32-P1, L33-P1 and L34-P1) was evaluated in the EOL1 model in vivo.
(§3) EOL1 luciferase transfected cells were cultured at 37° C. in an atmosphere of 5% CO2 in air in RPM11640 (BioConcept Ltd. Amimed) supplemented with 10% FCS (BioConcept Ltd. Amimed, #2-01 F30-1), 2 mM L-glutamine (BioConcept Ltd. Amimed, #5-10K00-H) and 1 mM sodium pyruvate (BioConcept Ltd. Amimed, #5-60F00-H), 10 mM HEPES (Gibco #11560496). To establish EOL1 xenografts cells were harvested and re-suspended in HBSS (Gibco, #14175) before injecting 100 μL containing 5×10^6 cells subcutaneously in the flanks of female SCID beige mice (Charles River, Germany). Tumor growth was monitored regularly post cell inoculation and animals were randomized into treatment groups (n=6) with a mean tumor volume of about 130 mm^3. The ADCs were administered intravenously (iv) once at the start of treatment at 2.5 mg/kg or at 3.3 mg/kg in combination with venetoclax which was administered orally (po) daily (qd) at 50 mg/kg. Doses were adjusted to individual mouse body weights. The iv dose volume was 10 ml/kg and each ADC was dissolved in 0.9% (w/v) NaCl in water. Tumor volume data on day 10 post treatment were analyzed statistically using one way ANOVA post hoc Tukey's multiple comparisons test (Indigo Software). Results are presented as mean±SEM. As a measure of efficacy the % T/C value is calculated on day 10 according to:
(§4) (Δtumor volume^treated/Δtumor volume^control)*100
(§5) Tumor regression was calculated according to:
(§6) −(Δtumor volume^treated/tumor volume^treated at start)*100
(§7) Where Δtumor volumes represent the mean tumor volume on the evaluation day minus the mean tumor volume at the start of the experiment.

Experiment [2] has as its system Nomo1 acute myeloid leukemia model. The experiment in a line: Nomo1 xenograft tumor growth inhibition. Format: in vivo. The note with it: female SCID mice, 50 MK 4ON/3OFF/4ON, PO, alone, day 9. The method, then: The in vivo therapeutic effect of a CD74-targeting ADC formulated in Phosphate-Buffered Saline (PBS) is determined in Nomo1 acute myeloid leukemia model after intravenous (IV) administration. The follow compounds were tested: anti-CD74_CysmAb Fc silent_L5-P1, anti-CD74_CysmAb Fc silent and IgG1-Linker-Payload Fc silent.
Nomo1 cells, obtained from DSMZ, were cultured in RPMI supplemented with 10% FBS. 0.1 ml containing 5×10^6 cells were subcutaneously inoculated into the right flank of female SCID mice, provided by Charles River. When tumors reached the appropriate volume, mice were randomized, 6 animals per group, using Easy stat software. IgG1-Linker-Payload Fc silent, anti-CD74_CysmAb Fc silent and anti-CD74_CysmAb Fc silent_L5-P1 (30 mg/kg) were injected once IV in PBS. Venetoclax (synthetized at the Servier Research Institute—IdRS) was formulated in PEG/EtOH/Phosal (Polyethylene glycol/ethanol/phosal, 30/10/60) and administered per os (PO) daily on weekdays (50 mpk, 4ON/3OFF/4ON). Mice body weight was monitored three times a week and tumor size measured using electronic calipers. […] The last day with at least half of animals of all groups still present in the study (d9), tumor growth inhibition was calculated using the formula: […]
With DTV (Delta Tumor Volume) at Dx, calculated being TV at Dx-TV at Randomization. […]

Experiment [3] has as its system Karpas422 diffuse large B-cell lymphoma model. The experiment in a line: Karpas422 xenograft tumor growth inhibition. In kind it is in vivo, mice. Particulars: 50 MK 4ON/3OFF/4ON, PO, alone.
Protocol: The in vivo therapeutic effect of a CD74-targeting ADC formulated in Phosphate-Buffered Saline (PBS) was determined in Karpas422 diffuse large B-cell lymphoma model after intravenous (IV) administration.
Karpas422 cells, obtained from ATCC, were cultured in RPMI supplemented with 20% FBS. Cells were resuspended in 100% Matrigel (BD Biosciences) and 0.1 ml containing 11×10^6 cells were subcutaneously inoculated into the right flank of female NSG mice, provided by Charles River. When tumors reached the appropriate volume, mice were randomized, 6 animals per group, using Easy stat software. IgG1-Linker-Payload Fc silent, anti-CD74_CysmAb Fc silent and anti-CD74_CysmAb Fc silent_L5-P1 (30 mg/kg) were injected once IV in PBS. Venetoclax (synthetized at the Servier Research Institute—IdRS) was formulated in PEG/EtOH/Phosal (Polyethylene glycol/ethanol/phosal, 30/10/60) and administered per os (PO) daily on weekdays (50 mpk, 4ON/3OFF/4ON). Mice body weight was monitored three times a week and tumor size measured using electronic calipers. Tumor volume was estimated by measuring the minimum and maximum tumor diameters using the formula: (minimum diameter)^2(maximum diameter)/2. The last day with at least half of control animals still present in the study (d23), tumor growth inhibition was calculated using the formula:
With DTV (Delta Tumor Volume) at Dx, calculated being TV at Dx-TV at Randomization. Response was evaluated as it follows: CR (Complete Response) if tumor size was <25 mm^3 for at least three measurements, PR (Partial Response) if tumor size was comprised between 25 mm^3 and 168.3 mm^3 (half of the starting size) for at least three measurements. Mice were sacrificed at the first measurement for which tumor volume exceeded 2000 mm^3 or at the first signs of animal health deterioration. […] SCID mice were maintained according to institutional guidelines.
Experiment [4] has as its system Monomac1 acute myeloid leukemia model. The experiment in a line: Monomac1 xenograft tumor growth inhibition. Format: in vivo, mice. Particulars: 50MK 2ON/2OFF/5ON/2OFF/4ON, PO, alone.
Protocol: The in vivo therapeutic effect of a CD74-targeting ADC formulated in Phosphate-Buffered Saline (PBS) was determined in Monomac1 acute myeloid leukemia model after intravenous (IV) administration. The following compounds were tested: CD74-targeting ADC is anti-CD74_CysmAb Fc silent_L5-P1, IgG1-Linker-Payload Fc silent, and anti-CD74_CysmAb Fc silent.
Monomac1 cells, obtained from DSMZ, were cultured in RPMI supplemented with 10% FBS. 0.1 ml containing 5×10^6 cells were subcutaneously inoculated into the right flank of female SCID mice, provided by Charles River. When tumors reached the appropriate volume, mice were randomized, 6 animals per group, using Easy stat software. IgG1-Linker-Payload Fc silent, anti-CD74_CysmAb Fc silent and anti-CD74_CysmAb Fc silent_L5-P1 (30 mg/kg) were injected once IV in PBS. Venetoclax (synthetized at the Servier Research Institute—IdRS) was formulated in PEG/EtOH/Phosal (Polyethylene glycol/ethanol/phosal, 30/10/60) and administered per os (PO) daily on weekdays (50 mpk, 2ON/2OFF/5ON/2OFF/4ON). Mice body weight was monitored three times a week and tumor size measured using electronic calipers. Tumor volume was estimated by measuring the minimum and maximum tumor diameters using the formula: (minimum diameter)^2(maximum diameter)/2. The last day with at least half of control animals still present in the study (d16), tumor growth inhibition was calculated using the formula:
With DTV (Delta Tumor Volume) at Dx, calculated being TV at Dx-TV at Randomization. […] Mice were sacrificed at the first measurement for which tumor volume exceeded 2000 mm^3 or at the first signs of animal health deterioration. […] SCID mice were maintained according to institutional guidelines.
Experiment [5] concerns EOL1 human acute myeloid (eosinophilic) leukemia xenograft model. The experiment in a line: EOL1 xenograft, CD74-L5-P1 Fc silent with venetoclax (Example 14). Format: in vivo, mice. How it is done: as §3, with “RPMI1640” for “RPM11640”, “CD74-L5-P1 Fc silent, isotype IgG1 ADC Fc silent and CD74 Fc silent antibody” for “The ADCs”, “the doses indicated in FIG. 12 either alone” for “2.5 mg/kg”, “or” for “or at 3.3 mg/kg”, “Kruskal-Wallis rank sum” for “one way ANOVA post hoc Tukey's multiple comparisons”, “When applicable, results” for “Results”
as §4, §5, §6, §7

Read-outs that look alike come from different tables or passages of the source.

Data on 2 molecules can be found in patent US20230081720A1, “MCL-1 INHIBITOR ANTIBODY-DRUG CONJUGATES AND METHODS OF USE” (NOVARTIS AG, priority 2019, published 2023).

As to `COCCOCCOCCOCCOCCOCCOCCOCCOCCOCCOCCOCCOCCOCCOCCOCCOCCOCCOCCOCCOCCOCCOCCOCCn1cc(COCc2cc(NC(=O)[C@H](CCCNC(N)=O)NC(=O)[C@@H](NC(=O)CCOCCN3C(=O)CC(C)C3=O)C(C)C)ccc2C[N+]2(C)CCN(CCOc3ccc(-c4c(-c5ccc(F)cc5)sc5ncnc(O[C@H](Cc6ccccc6OCc6ccnc(-c7ccccc7OC)n6)C(=O)O)c45)c(C)c3Cl)CC2)nn1` (stereo partly shown) [CD74-L5-P1], the IC50 with EOL-1 (+ 5 nM Compound A1, 5 days) worked out at 0.136 nM; in the experiment with EOL-1 (+ 5 nM Venetoclax, 5 days), 0.164 nM; in the experiment on EOL-1 (single agent, 5 days), 1.42 nM; in the experiment with MONO-MAC-1 (+ 5 nM Compound A1, 5 days), 0.636 nM; in the experiment on MONO-MAC-1 (+ 5 nM Venetoclax, 5 days) it was 1.31 nM; with MONO-MAC-1 (+ 50 nM Compound A1, 5 days), 0.156 nM. The half-maximal inhibitory concentration (IC50) in the experiment on MONO-MAC-1 (+ 50 nM Venetoclax, 5 days) amounted to 0.409 nM; in the experiment on MONO-MAC-1 (single agent, 5 days), 7.95 nM; in the experiment with NOMO-1 (+ 5 nM Compound A1, 5 days), 0.457 nM; in the experiment with NOMO-1 (+ 5 nM Venetoclax, 5 days) it was 1.03 nM; in the experiment with NOMO-1 (+ 50 nM Compound A1, 5 days), 0.138 nM; in the experiment with NOMO-1 (+ 50 nM Venetoclax, 5 days) it was 0.278 nM. Also, in the experiment with NOMO-1 (single agent, 5 days), the half-inhibitory concentration (IC50) was determined as 3.7 nM. Moreover, in the experiment with EOL-1 (single agent, 5 days), the “Amax (Span) EOL-1” value is on record as 91.25. In addition, the “Amax (Span) MONO-MAC-1” value in the experiment on MONO-MAC-1 (single agent, 5 days) stood at 84.9. In addition, in the experiment on NOMO-1 (single agent, 5 days), the “Amax (Span) NOMO-1” value is reported as 74.45. For the same molecule, the “T/C (%)” value in experiment [1] (day 10) was found to be 70%. Further, the “ΔTumor volume (mm^3)” value in experiment [1] (female SCID beige mice, day 10, mean) is 702 mm^3.
On to `CC1(C)CCC(CN2CCN(c3ccc(C(=O)NS(=O)(=O)c4ccc(NCC5CCOCC5)c([N+](=O)[O-])c4)c(Oc4cnc5[nH]ccc5c4)c3)CC2)=C(c2ccc(Cl)cc2)C1` [Venetoclax], for which the “% TGI (d9)” value in experiment [2] is listed as 26.2%. Besides, in experiment [3], the “% CR” value is 0% and the “% PR” value is 0%. The “% TGI (d23)” value in experiment [3] (female NSG mice, day 23) came out at 31.1%. Also, in experiment [4], the “% CR” value was determined as 0% and the “% PR” value is 0%. In addition, the “% TGI (d16)” value in experiment [4] (female SCID mice, day 16) was determined as 4.5%. Also, the “T/C (%)” value in experiment [5] (50 mg/kg p.o. qd + vehicle for ADC, day 10) came out at 90%. Also, the “ΔTumor volume (mm^3)” value in experiment [5] (50 mg/kg p.o. qd + vehicle for ADC, day 10, mean) is recorded as 977 mm^3. Moreover, the “antitumor effect (in words)” value in experiment [5] (50 mg/kg po qd alone) was “Limited efficacy”.
